According to PubChem BioAssay AID256 (DTP/NCI, 2004):
Inconclusive results and toxic doses are left out. How the source made its calls: active means survival T/C of 150% or more; inactive means T/C below 125% in these data.

System: CD2F1 mice, L1210 leukemia ip, survival T/C
Experiment: NCI In Vivo Anticancer Drug Screen. Data for tumor model L1210 Leukemia (intraperitoneal) in CD2F1 (CDF1) mice
Settings: endpoint: mean survival time, higher = longer survival
Procedure, shortened: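 Vehicle-treated tumor-bearing mice served as controls (C) for compound-treated mice (T). Reported figure is T divided by C.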

[1] = dose: 100.0 mg/kg/injection, schedule: Q04DX003 (ip), vehicle: saline with Tween-80
[2] = dose: 200.0 mg/kg/injection, schedule: Q04DX003 (ip), vehicle: saline with Tween-80
[3] = dose: 400.0 mg/kg/injection, schedule: Q04DX003 (ip), vehicle: saline with Tween-80
[4] = dose: 200.0 mg/kg/injection, schedule: Q01DX001 (ip), vehicle: saline with Tween-80
[5] = dose: 400.0 mg/kg/injection, schedule: Q01DX001 (ip), vehicle: saline with Tween-80
[6] = dose: 100.0 mg/kg/injection, schedule: Q01DX009 (ip), vehicle: saline with Tween-80
[7] = dose: 200.0 mg/kg/injection, schedule: Q01DX009 (ip), vehicle: saline with Tween-80
[8] = dose: 400.0 mg/kg/injection, schedule: Q01DX009 (ip), vehicle: saline with Tween-80

Measured: T/C

CCCCC/C=C\C/C=C\CCCCCCCC(=O)OCC1CNP(=O)(N(CCCl)CCCl)O1 (centres undefined)
inactive: dose: 6.25 mg/kg/injection, schedule: Q01DX009 (ip), vehicle: water 103 % of control | dose: 12.5 mg/kg/injection, schedule: Q01DX009 (ip), vehicle: water 95 % of control | dose: 23.3 mg/kg/injection, schedule: Q01DX001 (ip), vehicle: DMSO 101 % of control | dose: 25.0 mg/kg/injection, schedule: Q01DX009 (ip), vehicle: water 95 % of control | dose: 38.9 mg/kg/injection, schedule: Q01DX001 (ip), vehicle: DMSO 98 % of control | dose: 50.0 mg/kg/injection, schedule: Q01DX009 (ip), vehicle: water 97 % of control | dose: 64.8 mg/kg/injection, schedule: Q01DX001 (ip), vehicle: DMSO 98 % of control | dose: 100.0 mg/kg/injection, schedule: Q01DX009 (ip), vehicle: water 103 % of control | dose: 108.0 mg/kg/injection, schedule: Q01DX001 (ip), vehicle: DMSO 97 % of control | dose: 180.0 mg/kg/injection, schedule: Q01DX001 (ip), vehicle: DMSO 98 % of control | dose: 200.0 mg/kg/injection, schedule: Q01DX009 (ip), vehicle: water 103 % of control | dose: 300.0 mg/kg/injection, schedule: Q01DX001 (ip), vehicle: DMSO 97 % of control

Cc1c(N)cccc1F
inactive: dose: 50.0 mg/kg/injection, schedule: Q01DX009 (ip), vehicle: saline sonified 95 % of control | dose: 100.0 mg/kg/injection, schedule: Q04DX003 (ip), vehicle: saline 95 % of control | dose: 200.0 mg/kg/injection, schedule: Q04DX003 (ip), vehicle: saline 95 % of control

COC(=O)CC[S+](C)CCC(=O)OC
inactive: dose: 7.5 mg/kg/injection, schedule: Q01DX009 (ip), vehicle: saline 94 % of control | dose: 15.0 mg/kg/injection, schedule: Q01DX009 (ip), vehicle: saline 98 % of control | dose: 30.0 mg/kg/injection, schedule: Q01DX009 (ip), vehicle: saline 90 % of control

CCCCCCCCCCCCCCCCCS(=O)S(=O)O (centres undefined)
inactive: [1] 98 % of control | [2] 94 % of control | [3] 93 % of control

CC(C)(CC(=O)O)c1ccccc1
inactive: dose: 100.0 mg/kg/injection, schedule: Q04DX003 (ip), vehicle: saline sonified 97 % of control | dose: 200.0 mg/kg/injection, schedule: Q04DX003 (ip), vehicle: saline sonified 101 % of control | dose: 400.0 mg/kg/injection, schedule: Q04DX003 (ip), vehicle: saline sonified 97 % of control

Cc1cc(C)c(S(=O)(=O)Nc2cc(C)ccc2C)c(C)c1
inactive: dose: 100.0 mg/kg/injection, schedule: Q01DX001 (ip), vehicle: saline with Tween-80 98 % of control | [4] 96 % of control | [5] 102 % of control

C=C(C)C12CC(C)C34OC(CCCCCCCCCCC)(OC1C3C1OC1(CO)C(O)C1(O)C(=O)C(C)=CC14C)O2 (centres undefined)
inactive: dose: 0.05 mg/kg/injection, schedule: Q01DX009 (ip), vehicle: other 94 % of control | dose: 0.1 mg/kg/injection, schedule: Q01DX009 (ip), vehicle: other 89 % of control | dose: 0.2 mg/kg/injection, schedule: Q01DX009 (ip), vehicle: other 89 % of control | dose: 0.4 mg/kg/injection, schedule: Q01DX009 (ip), vehicle: other 89 % of control

CCc1ccc(NC(=O)c2ccccc2C(=O)O)cc1
inactive: [6] 102 % of control | [1] 101 % of control | [7] 98 % of control | [2] 97 % of control | [8] 105 % of control | [3] 97 % of control

COC(=O)c1ccc(C(=O)OC)cc1
inactive: [6] 95 % of control | [1] 93 % of control | [7] 98 % of control | [2] 104 % of control | [8] 95 % of control | [3] 101 % of control

C[n+]1ccccc1CCC(=O)Nc1ccccc1
inactive: dose: 25.0 mg/kg/injection, schedule: Q01DX009 (ip), vehicle: saline with Tween-80 103 % of control | dose: 50.0 mg/kg/injection, schedule: Q01DX009 (ip), vehicle: saline with Tween-80 95 % of control | [6] 88 % of control

CCOC(=O)C1=C(C)/C(=C/c2[n-]c(C)c(C(=O)OCC)c2C)N=C1C.CCOC(=O)C1=C(C)/C(=C/c2[n-]c(C)c(C(=O)OCC)c2C)N=C1C.[Co+2]
inactive: dose: 50.0 mg/kg/injection, schedule: Q01DX001 (ip), vehicle: saline with Tween-80 91 % of control | [4] 87 % of control | [5] 91 % of control
